This is an account of results in the supplement of paper PMC10331698.

Holding throughout (assay): level (log10 ratio to DMSO vehicle control); higher = higher biomarker level / cell amount than vehicle control
Compound in assay [1]: O=S(=O)(O)CCC(F)(F)C(F)(F)C(F)(F)C(F)(F)F [4:2 Fluorotelomer sulfonic acid]
To be noted: in DMSO. How it is done:
(§1)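 BioMAP Diversity Plus panel of 12 human primary cell co-culture systems (3C, 4H, LPS, SAg, BT, BF4T, BE3C, CASM3C, HDF3CGF, KF3CT, MyoF, Mphg). Compounds were added 1 h before stimulation and left for 24 h (MyoF 48 h; BT 72 h for soluble read-outs or 6 d for IgG). Biomarkers were read by ELISA, cytotoxicity by SRB, PBMC viability and proliferation by Alamar Blue. Each well value was divided by the mean of 8 DMSO control wells on the same plate and log10 transformed; duplicate blinded samples were tested at 4 concentrations.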

Compound in assay [2]: OCC(F)(F)C(F)(F)C(F)(F)C(F)(F)C(F)(F)C(F)(F)F [6:1 Fluorotelomer alcohol]
The note with it: in DMSO. How it is done:
as §1

Compound in assay [3]: O=C(CC(=O)C(F)(F)C(F)(F)C(F)(F)F)c1cccs1 [(Perfluorobutyryl)-2-thenoylmethane]
To be noted: in DMSO. The protocol:
as §1

Compound in assay [4]: OCC(F)(F)C(F)(F)C(F)(F)C(F)(F)C(F)(F)C(F)(F)C(F)(F)C(F)(F)C(F)(F)C(F)(F)C(F)(F)F [11:1 Fluorotelomer alcohol]
To be noted: in DMSO. The protocol: as §1

Compound in assay [5]: O=C(Cl)C(F)(F)C(F)(F)C(F)(F)C(=O)Cl [Hexafluoroglutaryl chloride]
The note with it: in DMSO. The protocol:
as §1

Compound in assay [6]: FC(F)(I)C(F)(F)C(F)(F)C(F)(F)C(F)(F)C(F)(F)I [1,6-Diiodoperfluorohexane]
To be noted: 6700 nM; in DMSO. The protocol: as §1

Compound in assay [7]: O=S(=O)(OCC(F)(F)F)C(F)(F)C(F)(F)C(F)(F)C(F)(F)F [2,2,2-Trifluoroethyl perfluorobutanesulfonate]
To be noted: in DMSO. The protocol: as §1

± gives the standard deviation of the averaged measurements.

Take MyoF:CD106/VCAM-1: the “level (log10)” value in assay [1] (6700 nM) was -0.0015 ± 0.013; in assay [1] (20000 nM), -0.0115 ± 0.0092; in assay [1] (60000 nM), -0.004 ± 0.0014; in assay [2] (6700 nM), -0.003 ± 0.0071; in assay [2] (20000 nM), -0.009 ± 0.017; in assay [2] (60000 nM), -0.002 ± 0.018. Also, the “level (log10)” value in assay [3] (6700 nM) was -0.0225 ± 0.039; in assay [3] (20000 nM), -0.0315 ± 0.013; in assay [4] (1100 nM), -0.0055 ± 0.037; in assay [4] (3300 nM), -0.0075 ± 0.022; in assay [4] (10000 nM), -0.0025 ± 0.00071; in assay [5] (6700 nM) it was -0.003 ± 0.0028. Moreover, the “level (log10)” value in assay [5] (20000 nM) was 0.0015 ± 0.018; in assay [5] (60000 nM), 0.0035 ± 0.012; in assay [6], -0.373; in assay [7] (6700 nM), -0.01 ± 0.011; in assay [7] (20000 nM), 0.026 ± 0.014; in assay [7] (60000 nM), -0.0075 ± 0.0021.
Take HDF3CGF:Proliferation 72hr: the “level (log10)” value in assay [1] (6700 nM) was -0.022 ± 0.092; in assay [1] (20000 nM), 0.001 ± 0.021; in assay [1] (60000 nM), -0.007 ± 0.047; in assay [2] (6700 nM), -0.0265 ± 0.033; in assay [2] (20000 nM), 0.003 ± 0.011; in assay [2] (60000 nM), -0.87 ± 0.098. Besides, the “level (log10)” value in assay [3] (6700 nM) is -0.38 ± 0.0092; in assay [3] (20000 nM), -0.485 ± 0.005; in assay [4] (1100 nM) it was -0.015 ± 0.065; in assay [4] (3300 nM), 0 ± 0.0099; in assay [4] (10000 nM), 0.021 ± 0.02; in assay [5] (6700 nM), 0.001 ± 0.0042. Moreover, the “level (log10)” value in assay [5] (20000 nM) was -0.0005 ± 0.012; in assay [5] (60000 nM), -0.0095 ± 0.019; in assay [6], -0.919; in assay [7] (6700 nM), -0.046; in assay [7] (20000 nM), -0.0425 ± 0.029; in assay [7] (60000 nM), -0.1 ± 0.047.
On to BE3C:Keratin 8/18, for which the “level (log10)” value is 0.0065 ± 0.0021 in assay [1] (6700 nM); -0.002 ± 0.0014 in assay [1] (20000 nM); 0.0005 ± 0.0035 in assay [1] (60000 nM); 0.0055 ± 0.036 in assay [2] (6700 nM); -0.0035 ± 0.057 in assay [2] (20000 nM); -0.0125 ± 0.071 in assay [2] (60000 nM). Further, the “level (log10)” value in assay [3] (6700 nM) is -0.0535 ± 0.025; in assay [3] (20000 nM) it was -0.145 ± 0.005; in assay [4] (1100 nM) it was 0.0065 ± 0.04; in assay [4] (3300 nM) it was -0.016 ± 0.035; in assay [4] (10000 nM), 0.018 ± 0.025; in assay [5] (6700 nM), 0.0005 ± 0.005. The “level (log10)” value in assay [5] (20000 nM) was -0.0195 ± 0.0078; in assay [5] (60000 nM), -0.0135 ± 0.022; in assay [6] it was -0.018; in assay [7] (6700 nM), -0.0055 ± 0.005; in assay [7] (20000 nM), -0.0075 ± 0.015; in assay [7] (60000 nM) it was -0.009 ± 0.0085.
For the test system CASM3C:IL-6, the “level (log10)” value is 0.0015 ± 0.0092 in assay [1] (6700 nM); -0.0065 ± 0.0078 in assay [1] (20000 nM); 0.001 ± 0.028 in assay [1] (60000 nM); -0.008 ± 0.025 in assay [2] (6700 nM); -0.0165 ± 0.042 in assay [2] (20000 nM); -0.0005 ± 0.0021 in assay [2] (60000 nM). Also, the “level (log10)” value in assay [3] (6700 nM) was -0.006 ± 0.028; in assay [3] (20000 nM) it was -0.068 ± 0.013; in assay [4] (1100 nM), -0.0065 ± 0.00071; in assay [4] (3300 nM), -0.022 ± 0.025; in assay [4] (10000 nM) it was 0.005 ± 0.02; in assay [5] (6700 nM) it was 0.006 ± 0.014. Also, the “level (log10)” value in assay [5] (20000 nM) was -0.0145 ± 0.021; in assay [5] (60000 nM) it was 0.031 ± 0.017; in assay [6] it was -0.063; in assay [7] (6700 nM), -0.02 ± 0.033; in assay [7] (20000 nM) it was -0.0685 ± 0.0078; in assay [7] (60000 nM), -0.029 ± 0.024.
